These results are taken from PubChem BioAssay (NCI).

This test concerns P388/ADR leukemia. The test is described as follows: NCI tumour cell line growth inhibition, 48 h.

Each structure is given as a SMILES string.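 1) Cells in 96-well plates. 2) Compound, 48 h, 5 concentrations. 3) Linear interpolation between surrounding doses. 4) Unreached endpoint = highest concentration. TGI marks complete inhibition of growth.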

With `Nc1nc(=S)c2[nH]cnc2[nH]1`, the TGI came out at 12.9 µM.

As for `O=NN(CCCl)C(=O)NC1CCCCC1`, the TGI stood at 47.4 µM.
